Measured values from patent publication US7851436B2, “Inhibition of migration and induction of cell death by the type II collagen amino propeptides” (Washington University, priority 2007, dated 2010).

Tests used:
[1] = tested on: Ch-1 cell adhesion to PIIBNP; experiment: Inhibition of Ch-1 cell adhesion to PIIBNP by synthetic blocking peptides and integrin antibodies; assay type: cell-based, human
Experimental: (§1) Cell Adhesion Assay. Cell adhesion assays were performed using a spectrometric method. A 96-well plate was coated at 4° C. overnight with recombinant proteins. Wells were washed three times with RPMI-1640 medium containing 10% FBS. Ch-1 cells were harvested with limited trypsin digestion and plated at 5×10^4 cells per well in RPMI-1640 medium supplemented with 10% FBS for an hours. Proteins were added and incubation continued for 1 hour. The wells were washed three times with pre-warmed PBS to remove non-adherent cells. The adherent cells were fixed with 4% paraformaldehyde in PBS for 10 minutes at room temperature and stained with 0.5% toluidine blue for 5 minutes. The wells were rinsed with water and cells were solubilized with 0.1% SDS. Absorbance at 595 nm was recorded on a SpectraMax plate reader. Synthetic blocking peptides and antibodies to αVβ3 and αVβ5 integrin were pre-incubated with cells for 15 to 30 mins before they were added onto the wells in the inhibition assays.
Antibodies. Monoclonal antibodies used for blocking experiments were: mouse anti αVβ3 and αVβ5 integrins (Chemicon). Polyclonal antibodies for immunohistochemistry and western blotting were rabbit anti human αV, α2, α3, α5, β1, β3, β5 integrin, goat anti human actin (Santa Cruz), mouse anti exon 2, rabbit anti GSTexon 2, and chicken anti PIIBNP (antiserum made in our lab).

[2] = tested on: Ch-1 cells; experiment: Detection of cell death in Ch-1 cells; assay type: cell-based, human; conditions: 0.8 μM, serum free medium, 24 hrs; type I collagen, fibronectin or Matrigel coated plates
Experimental: Cell Culture. Human Chondrosarcoma cell line (Ch-1) was isolated from a portion of chondrosarcoma tumor. The Ch-1 cell line was maintained in RPMI-1640 supplemented with 10% FBS and at 37° C. in a humidified, 5% CO2 atmosphere. Human chondrocytes were obtained from Dr. Davis Adkisson (ISTO Technologies, St. Louis) or isolated from macroscopically intact tissue obtained from total joint arthroplasty as described (Bassleer et al., 1998). HeLa 229 cells and MDA-MB 231 cell lines were provided by Dr. Kathy Weilbaecher (Washington University) and were cultured in RPMI medium supplemented with 10% FBS. HUVEC cells were a gift from Dr. William Frazier (Washington University) and were cultured in M199 Earle's medium with 10 units/ml of penicillin, 5 μg/ml streptomycin and 0.25 μg/ml Fungizone supplemented with 10% FBS, 0.1 mg/ml L-glutamine, 25 mM Hepes, 16 units/ml of heparin (Sigma) and 0.1 mg/ml endothelial cell mitogen (Biochemical Technologies).
Detection of Cell Death. Cells were cultured to confluence in a 24-well plate pre-coated with type I collagen, fibronectin (Sigma), and ECM Matrigel (Becton Dickinson). Proteins in serum-free medium were added to the cells. Cells were monitored by light microscopy and images were digitally photographed using a Q capture Retiga 2000R camera. Quantification of cells remaining in the well was performed by washing with PBS for three times, fixing with 4% paraformaldehyde. The cells per field (×400) were counted for three field per well (3 wells per measurement). The mean number and standard deviation (SD) were calculated.

[3] = tested on: HUVEC cells; experiment: HUVEC cell death; assay type: cell-based, human; conditions: 60 hrs, 37° C.; higher concentrations
Experimental: FIG. 6 depicts photographs and graphs showing that PIIBNP inhibits angiogenesis. […] Quantification of tube formation was calculated based on branch points per field of view (FIG. 6C) for each treatment ranging from 0.1 μM to 10 μM of PIIBNP. […] GST (▴) and PIIANP (●) had no effect on the cells.
As a second test for angiogenesis, we tested the ability of PIIBNP to inhibit outgrowth of endogenous endothelial cells from freshly isolated rat aorta. […] In order to determine whether PIIBNP caused endothelial cell death, the number of HUVEC cells present after incubation with PIIBNP was determined (FIGS. 6E and 8). Tube formation was inhibited by 50% with 0.1 μM PIIBNP, with no cell death. […] Consequently, PIIBNP can inhibit angiogenesis in a cell line and in endogenous endothelial cells mediated by integrins αVβ3 and αVβ5.

[4] = biological target: T1, αVβ5 integrin (Homo sapiens, UniProt P06756+P18084); experiment: Cell surface labeling and GST pull-down with immunoblotting; assay type: binding; conditions: biotin-labeled Ch-1 membrane proteins, Western blot
T1 construct: Ch-1 membrane proteins were labeled with biotin, and PIIBNP was used to isolate the integrin molecules; endogenous in cells; host or cells: Ch-1 human chondrosarcoma cells (surface-biotinylated, lysed)
Experimental: (§2) Immunoblotting. Western blotting was performed as described (7). Blots were probed with the following primary antibodies: rabbit anti αV, α2, α3, α5, β1, β3, β5 integrin and goat anti actin (Saint Cruz), chicken anti PIIBNP antiserum, and mouse anti exon 2 antiserum.
(§3) Cell Surface labeling and GST Pull-down Assay. Ch-1 cells were incubated with EZ-link Sulfo-NHS-Biotin reagent for 30 mins. according to the product instruction (Sigma). After 3 washes with 0.1 M glycine in PBS, the cells were lysed with a lysis buffer described above. The lysate was incubated with glutathione derivatized agarose beads previously bound with GST, PIIANP, PIIBNP or mPIIBNP for 1 hr. at RT. […] The membrane was washed and incubated with antibodies and then incubated with a secondary antibody coupled to horseradish peroxidase. The antibody complex was visualized by enhanced chemiluminescence.

[5] = biological target: T2, αVβ3 integrin (Homo sapiens, UniProt P05106+P06756); experiment: as above; assay type: binding; conditions: biotin-labeled Ch-1 membrane proteins, Western blot
T2 construct: Ch-1 membrane proteins were labeled with biotin, and PIIBNP was used to isolate the integrin molecules; endogenous in cells; host or cells: Ch-1 human chondrosarcoma cells (surface-biotinylated, lysed)
Experimental: as §2, §3

[6] = tested on: Ch-1 cells; experiment: Cell adhesion assay (Ch-1 cells on wells coated with recombinant proteins); assay type: cell-based, human; conditions: wells coated with recombinant protein
Experimental: as §1
Cell Culture. Human Chondrosarcoma cell line (Ch-1) was isolated from a portion of chondrosarcoma tumor (Chansky et al., J Orthop Res. (1998) 16(5):521-30). The Ch-1 cell line was maintained in RPMI-1640 supplemented with 10% FBS and at 37° C. in a humidified, 5% CO2 atmosphere.

T1 sequence (P06756 31-889 limits assumed): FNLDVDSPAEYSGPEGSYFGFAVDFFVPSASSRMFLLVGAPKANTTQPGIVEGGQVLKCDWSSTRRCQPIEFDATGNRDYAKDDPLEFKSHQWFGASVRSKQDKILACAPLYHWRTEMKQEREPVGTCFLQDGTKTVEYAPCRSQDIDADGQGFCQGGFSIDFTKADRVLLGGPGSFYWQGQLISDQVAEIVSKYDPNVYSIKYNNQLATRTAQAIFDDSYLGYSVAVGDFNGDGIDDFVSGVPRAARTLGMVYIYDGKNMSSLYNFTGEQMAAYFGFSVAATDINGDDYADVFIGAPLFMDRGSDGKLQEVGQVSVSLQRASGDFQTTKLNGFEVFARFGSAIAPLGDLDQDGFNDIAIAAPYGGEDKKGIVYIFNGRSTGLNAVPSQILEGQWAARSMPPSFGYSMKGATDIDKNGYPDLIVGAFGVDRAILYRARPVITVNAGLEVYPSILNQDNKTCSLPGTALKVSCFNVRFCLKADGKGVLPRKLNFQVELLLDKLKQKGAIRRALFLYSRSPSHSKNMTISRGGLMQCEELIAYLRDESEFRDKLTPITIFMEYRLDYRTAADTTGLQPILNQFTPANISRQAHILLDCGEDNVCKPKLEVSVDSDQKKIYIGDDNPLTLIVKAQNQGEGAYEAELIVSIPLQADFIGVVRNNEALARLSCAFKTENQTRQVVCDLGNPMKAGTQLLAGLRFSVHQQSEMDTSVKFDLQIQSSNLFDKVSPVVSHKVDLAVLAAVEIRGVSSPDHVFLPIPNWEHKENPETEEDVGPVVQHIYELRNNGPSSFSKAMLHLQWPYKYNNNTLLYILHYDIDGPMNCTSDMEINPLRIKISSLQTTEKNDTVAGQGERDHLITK
T1 sequence (P06756 891-1048 limits assumed): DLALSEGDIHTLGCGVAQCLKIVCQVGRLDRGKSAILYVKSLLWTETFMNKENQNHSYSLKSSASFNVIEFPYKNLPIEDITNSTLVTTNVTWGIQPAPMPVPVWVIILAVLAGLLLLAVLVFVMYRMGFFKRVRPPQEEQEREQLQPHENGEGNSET
T1 sequence (P18084 24-799): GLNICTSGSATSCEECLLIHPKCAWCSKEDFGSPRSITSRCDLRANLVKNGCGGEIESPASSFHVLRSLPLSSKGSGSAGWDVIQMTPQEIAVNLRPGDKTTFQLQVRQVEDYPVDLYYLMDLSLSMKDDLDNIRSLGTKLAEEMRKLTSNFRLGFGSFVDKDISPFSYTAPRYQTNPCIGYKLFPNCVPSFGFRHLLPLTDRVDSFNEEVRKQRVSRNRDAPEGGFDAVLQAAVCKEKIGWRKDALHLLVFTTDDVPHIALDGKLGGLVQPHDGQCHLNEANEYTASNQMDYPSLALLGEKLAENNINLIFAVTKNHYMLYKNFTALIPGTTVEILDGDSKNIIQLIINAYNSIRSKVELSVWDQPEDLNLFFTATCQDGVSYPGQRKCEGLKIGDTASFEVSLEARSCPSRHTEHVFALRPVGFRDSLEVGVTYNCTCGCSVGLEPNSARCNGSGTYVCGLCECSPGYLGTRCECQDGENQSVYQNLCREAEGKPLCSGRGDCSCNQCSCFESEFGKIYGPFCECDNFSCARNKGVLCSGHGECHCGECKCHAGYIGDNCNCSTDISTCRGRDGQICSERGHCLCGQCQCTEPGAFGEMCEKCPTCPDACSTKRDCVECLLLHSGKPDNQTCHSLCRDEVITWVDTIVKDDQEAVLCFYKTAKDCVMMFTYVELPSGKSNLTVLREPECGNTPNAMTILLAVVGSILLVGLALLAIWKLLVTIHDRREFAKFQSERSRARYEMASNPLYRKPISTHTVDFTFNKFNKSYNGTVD
T2 sequence (P06756 31-889 limits assumed): as the sequence (P06756 31-889 limits assumed) above
T2 sequence (P06756 891-1048 limits assumed): as the sequence (P06756 891-1048 limits assumed) above
T2 sequence (P05106 27-788): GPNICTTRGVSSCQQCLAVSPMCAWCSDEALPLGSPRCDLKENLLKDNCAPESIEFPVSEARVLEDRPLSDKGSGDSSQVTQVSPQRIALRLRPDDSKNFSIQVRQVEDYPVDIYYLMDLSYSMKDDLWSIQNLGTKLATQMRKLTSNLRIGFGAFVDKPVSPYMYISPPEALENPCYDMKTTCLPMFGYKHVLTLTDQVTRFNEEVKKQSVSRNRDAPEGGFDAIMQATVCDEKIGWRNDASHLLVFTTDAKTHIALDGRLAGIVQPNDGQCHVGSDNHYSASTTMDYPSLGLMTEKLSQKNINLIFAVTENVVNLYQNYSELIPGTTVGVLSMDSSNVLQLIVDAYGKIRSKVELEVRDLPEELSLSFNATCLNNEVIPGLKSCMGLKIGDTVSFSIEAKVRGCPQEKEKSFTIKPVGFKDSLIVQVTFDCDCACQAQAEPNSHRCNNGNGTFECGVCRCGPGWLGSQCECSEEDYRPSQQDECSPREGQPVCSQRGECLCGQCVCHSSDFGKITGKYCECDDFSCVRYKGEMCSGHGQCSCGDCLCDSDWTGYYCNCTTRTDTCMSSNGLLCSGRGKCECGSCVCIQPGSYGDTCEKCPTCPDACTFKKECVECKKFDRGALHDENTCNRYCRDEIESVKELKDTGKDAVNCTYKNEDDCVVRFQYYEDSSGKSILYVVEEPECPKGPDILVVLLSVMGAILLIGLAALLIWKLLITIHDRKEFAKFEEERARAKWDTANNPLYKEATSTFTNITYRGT

Substance: GRADNP (listed as Homo sapiens)
- inhibition of adhesion ([1]; at 60 μM): ~50%

Substance: GRGDNP (listed as Homo sapiens)
- inhibition of adhesion ([1]; at 10 μM): 50%
- compete and inhibit adhesion ([1]; synthetic peptides pre-incubated with cells): compete and inhibit adhesion

Substance: GST: Recombinant GST alone, control protein for the GST fusion proteins [reference compound]
- induction of cell death in Ch-1 cells [2]: did not induce cell death
- HUVEC cell death [3]: no effect
- binding to integrin αVβ5 [4]: does not
- binding to integrin αVβ3 [5]: does not

Substance: PIIBNPn: PIIBNP obtained by cleavage of GST from a GST-PIIBNP fusion protein with thrombin beads
- adhesion to Ch-1 cells [6]: strong binding
